1 substance from patent US20230303623A1, “PEPTIDES AND METHODS OF USE” (REALTA LIFE SCIENCES, INC., priority 2020, published 2023) can be followed below.

The experiment relates to antibody-initiated complement activation (lysis of AB human red blood cells by type O serum). Put plainly: ABO incompatibility hemolytic complement assay (CH50-type). Format: cell-based. The following applies: peptides 0.8 mg/ml (~0.5 mM), compared to parent peptide. The procedure: FIG. 1A-1B show PIC1 peptides' inhibition of complement activation in an ABO incompatibility assay. […] Inhibition of ABO incompatibility hemolysis in a CH50-type assay. Peptides are at a final concentration of 0.5 mM. Values are represented as a percent of the positive control, which consists of human 0 sera and AB red blood cells in GVBS^++ buffer. Data are the means of n=3 independent experiments±SEM.
For hemolytic complement assays, human red blood cells (RBCs) from type AB donors were purified, washed, and standardized to 1.0×10^9 cells/ml, as previously described. Human sera from type 0 donors at a 15% final concentration was combined with 0.5 mM of the peptides and the volume was brought up to 0.2 ml with GVBS^++ and 5.0×10^7 RBCs. The samples were incubated for 1 hour at 37° C. and then spun at 3,000 rpm for 5 minutes and the supernatant was collected and read at 412 nm. Values are represented as a percent of the positive control, which consists of human 0 sera and AB red blood cells in GVBS^++ buffer.
To assess the extent to which the peptide variants inhibit antibody-initiated complement activation, an ABO incompatibility ex vivo assay was utilized in which purified erythrocytes from a ‘type AB+’ donor are incubated with sera from a ‘type 0’ subject containing anti-A and anti-B antibodies. Peptides were tested at a concentration of 0.8 mg/ml (˜0.5 mM).

Turning to “IAdLILEP(Sar)CCQERAA (IALILEPXCCQERAA; D-Leu; sarcosine; MOD_RES (3)..(3) D-amino acid; MOD_RES (8)..(8) Sarcosine) [PA-0122]”, the “inhibition of ABO incompatible hemolysis (complement inhibition), in words” value was “greater extent”. Moreover, for the setting “listed as RLS-0122”, the “inhibition of ABO incompatible hemolysis (complement inhibition), in words” value is reported as “potently block complement activation”.
